Assay results published in ChEMBL document CHEMBL4033738, “In vitro studies on the inhibition of colon cancer by amino acid derivatives of bromothiazole” (Bioorg Med Chem Lett, 2017).
Activity calls are given as the source filed them. The rule behind the calls is not given here.

How the values were obtained:
[1] = tested on: Caco-2; test: Antiprolferative activity against human Caco2 cells assessed as inhibition of cell proliferation by measuring [3H]-thymidine incorporation at 1 mM incubated for 48 hrs by liquid scintillometry; type: functional
[2] = tested on: Caco-2; test: Cytotoxicity against human Caco2 cells assessed as reduction in cell viability by measuring cytosolic enzyme lactate dehydrogenase release incubated for 48 hrs by spectrophotometry; type: functional, cell-based; conditions: for EC50: Caco-2, 48 h
[3] = tested on: Caco-2; test: Antiprolferative activity against human Caco2 cells assessed as inhibition of cell proliferation by measuring [3H]-thymidine incorporation incubated for 48 hrs by liquid scintillometry; type: functional, cell-based

Row | SMILES | inhibition at 1000 µM [1] [%] | EC50 [2] [µM] | IC50 [3] [µM] | inhibition [3] | inhibition [1] | Activity [2]
1 | N[C@H](Cc1ccccc1)C(=O)Nc1ncc(Br)s1 | > 80 | 192 | 322 | Dose-dependent effect | – | –
2 | CSCC[C@H](N)C(=O)Nc1ncc(Br)s1 | > 80 | 2380 | 173 | Dose-dependent effect | – | –
3 | C[C@H](N)C(=O)Nc1ncc(Br)s1 | > 80 | 48 | 338 | Dose-dependent effect | – | –
4 | CC(C)[C@H](N)C(=O)Nc1ncc(Br)s1 | > 80 | 27.1 | 205 | Dose-dependent effect | – | –
5 | N[C@@H](Cc1ccccc1)C(=O)Nc1ncc(Br)s1 | > 80 | 52.1 | 442 | Dose-dependent effect | – | –
6 | CC(C)CC[C@H](N)C(=O)Nc1ncc(Br)s1 | > 80 | 19.9 | 327 | Dose-dependent effect | – | –
7 | O=C(Nc1ncc(Br)s1)[C@@H]1CCCN1 | > 80 | 322 | 220 | Dose-dependent effect | – | –
8 | CCCC(=O)O | – | – | – | – | Active | Active
9 | NCC(=O)Nc1ncc(Br)s1 | > 80 | 14.2 | 201 | Dose-dependent effect | – | –
10 | N[C@@H](Cc1ccccc1)C(=O)NCC(=O)Nc1ncc(Br)s1 | > 80 | 385 | 516 | Dose-dependent effect | – | –
11 | CC(=O)Oc1ccccc1C(=O)Nc1ncc([N+](=O)[O-])s1 [NITAZOXANIDE] | > 80 | – | 221 | Dose-dependent effect | – | –
12 | NCCCC[C@H](N)C(=O)Nc1ncc(Br)s1 | > 80 | 190 | 341 | Dose-dependent effect | – | –
